test system: TNFα release from human peripheral blood mononuclear cells; assay: Inhibition of TNFα release from LPS-stimulated human peripheral blood mononuclear cells (TNFα screen); type: cell-based; conditions: 18 hours incubation, TNFα in supernatant by ELISA
Description: Venous blood is collected from healthy volunteers and the mononuclear cells purified by centrifugation through Histopaque (Ficoll) cushions. TNFα production from these cells is stimulated by addition of lipopolysaccharide. After 18 hours incubation in the presence of LPS, the cell supernatant is removed and the concentration of TNFα in the supernatant determined by ELISA.
(§1) Data are presented below for the Examples in which the TNFα and PDE4 inhibition are presented as IC50 values in nM.

Row | IC50 | Structure (SMILES)
1 | 14 nM | O=C(N[C@H]1CC[C@@H](NC(=O)c2cc(Cl)cc(Cl)c2O)CC1)c1cc(F)cnc1OC1CCSCC1 [Example 26, Syn-N-[4-(3,5-Dichloro-2-hydroxy-benzoylamino)-cyclohexyl]-5-fluoro-2-(tetrahydro-thiopyran-4-yloxy)-nicotinamide]
2 | 0.03 nM | O=C(NC1CCC(NS(=O)(=O)c2c(O)ccc3cccnc23)CC1)c1cccnc1OC1CCSCC1 (stereo not drawn) [Example 73, Syn-N-[4-(7-hydroxy-quinoline-8-sulfonylamino)-cyclohexyl]-2-(tetrahydro-thiopyran-4-yloxy)-nicotinamide]
3 | 0.001 nM | O=C(NC1CCC(NS(=O)(=O)c2c(O)ccc3cccnc23)CC1)c1cc(F)cnc1OC1CCSCC1 (stereo not drawn) [Example 72, Syn-5-Fluoro-N-[4-(7-hydroxy-quinoline-8-sulfonylamino)-cyclohexyl]-2-(tetrahydro-thiopyran-4-yloxy)-nicotinamide]

same assay, conditions: PBMC, 18 hours incubation, TNFα in supernatant by ELISA

Row | IC50 | Structure (SMILES)
4 | 1 nM | O=C(N[C@H]1CC[C@@H](NC(=O)c2cc(F)cnc2OC2CCSCC2)CC1)c1ccc(O)cc1O [Example 58, Syn-N-[4-(2,4-Dihydroxy-benzoylamino)-cyclohexyl]-5-fluoro-2-(tetrahydro-thiopyran-4-yloxy)-nicotinamide]
5 | 0.02 nM | O=C(N[C@H]1CC[C@@H](NS(=O)(=O)c2cccc3cccnc23)CC1)c1cccnc1OC1CCSCC1 [Example 65]
6 | 12 nM | Cc1cnc(OC2CCSCC2)c(C(=O)N[C@H]2CC[C@@H](NC(=O)c3cc(CO)ccc3O)CC2)c1 [Example 62, Syn-N-[4-(2-Hydroxy-5-hydroxymethyl-benzoylamino)-cyclohexyl]-5-methyl-2-(tetrahydro-thiopyran-4-yloxy)-nicotinamide]
7 | 0.1 nM | CCc1cc(C(=O)N[C@H]2CC[C@@H](NC(=O)c3cc(F)cnc3OC3CCSCC3)CC2)nn1CCO [Example 54, Syn-N-(4-{[5-Ethyl-1-(2-hydroxy-ethyl)-1H-pyrazole-3-carbonyl]-amino}-cyclohexyl)-5-fluoro-2-(tetrahydro-thiopyran-4-yloxy)-nicotinamide]
8 | 15 nM | Cc1ccc(S(=O)(=O)N[C@H]2CC[C@@H](NC(=O)c3cc(F)cnc3OC3CCSCC3)CC2)cc1 [Example 69, Syn-5-Fluoro-2-(tetrahydro-thiopyran-4-yloxy)-N-[4-(toluene-4-sulfonylamino)-cyclohexyl]-nicotinamide]
9 | 2 nM | Cc1ccccc1S(=O)(=O)N[C@H]1CC[C@@H](NC(=O)c2cc(F)cnc2OC2CCSCC2)CC1 [Example 70, Syn-5-Fluoro-2-(tetrahydro-thiopyran-4-yloxy)-N-[4-(toluene-2-sulfonylamino)-cyclohexyl]-nicotinamide]
10 | 20 nM | CC(C)c1cc(C(=O)N[C@H]2CC[C@@H](NC(=O)c3cc(F)cnc3OC3CCSCC3)CC2)n(CCO)n1 [Example 56, Syn-5-Fluoro-N-(4-{[2-(2-hydroxy-ethyl)-5-isopropyl-2H-pyrazole-3-carbonyl]-amino}-cyclohexyl)-2-(tetrahydro-thiopyran-4-yloxy)-nicotinamide]
11 | 0.06 nM | Cc1cnc2c(C(=O)N[C@H]3CC[C@@H](NC(=O)c4cc(F)cnc4OC4CCSCC4)CC3)cccn12 [Example 60, Syn-3-Methyl-imidazo[1,2a]pyridine-8-carboxylic acid (4-{[5-fluoro-2-(tetrahydro-thiopyran-4-yloxy)-pyridine-3-carbonyl]-amino}-cyclohexyl)-amide]
12 | 3 nM | O=C(N[C@H]1CC[C@@H](NC(=O)c2cc(Cl)cnc2OC2CCSCC2)CC1)c1cc(CO)ccc1O [Example 61, Syn-5-Chloro-N-[4-(2-hydroxy-5-hydroxymethyl-benzoylamino)-cyclohexyl]-2-(tetrahydro-thiopyran-4-yloxy)-nicotinamide]
13 | 17 nM | CCc1cc(C(=O)N[C@H]2CC[C@@H](NC(=O)c3cc(F)cnc3OC3CCSCC3)CC2)n(CCO)n1 [Example 55, Syn-N-(4-{[5-Ethyl-2-(2-hydroxy-ethyl)-2H-pyrazole-3-carbonyl]-amino}-cyclohexyl)-5-fluoro-2-(tetrahydro-thiopyran-4-yloxy)-nicotinamide]
14 | 0.03 nM | Cc1cc(C(=O)N[C@H]2CC[C@@H](NC(=O)c3cc(F)cnc3OC3CCSCC3)CC2)nn1CCO [Example 52, Syn-5-Fluoro-N-(4-{[1-(2-hydroxy-ethyl)-5-methyl-1H-pyrazole-3-carbonyl]-amino}-cyclohexyl)-2-(tetrahydro-thiopyran-4-yloxy)-nicotinamide]
15 | 0.07 nM | CC(C)c1cc(C(=O)N[C@H]2CC[C@@H](NC(=O)c3cc(F)cnc3OC3CCSCC3)CC2)nn1CCO [Example 57, Syn-5-Fluoro-N-(4-{[1-(2-hydroxy-ethyl)-5-isopropyl-1H-pyrazole-3-carbonyl]-amino}-cyclohexyl)-2-(tetrahydro-thiopyran-4-yloxy)-nicotinamide]

Further lines, the molecule ahead of its results:

Row | Structure (SMILES) | IC50
16 | O=C(N[C@H]1CC[C@@H](NC(=O)c2cc(F)cnc2OC2CCSCC2)CC1)c1ccc2cn[nH]c2c1 [Example 34, Syn-1H-Indazole-6-carboxylic acid (4-{[5-fluoro-2-(tetrahydro-thiopyran-4-yloxy)-pyridine-3-carbonyl]-amino}-cyclohexyl)-amide] | 1 nM
17 | O=C(N[C@H]1CC[C@@H](NC(=O)c2cc(O)nc3ccccc23)CC1)c1cc(F)cnc1OC1CCSCC1 [Example 30, Syn-2-Hydroxy-guinoline-4-carboxylic acid (4-{[5-fluoro-2-(tetrahydro-thiopyran-4-yloxy)-pyridine-3-carbonyl]-amino}-cyclohexyl)-amide] | 2 nM
18 | O=C(N[C@H]1CC[C@@H](NC(=O)c2cccn3c(CO)cnc23)CC1)c1cc(F)cnc1OC1CCSCC1 [Example 51, Syn-3-Hydroxymethyl-imidazo[1,2-a]pyridine-8-carboxylic acid (4-{[5-fluoro-2-(tetrahydro-thiopyran-4-yloxy)-pyridine-3-carbonyl]-amino}-cyclohexyl)-amide] | 0.1 nM
19 | O=C(N[C@H]1CC[C@@H](NC(=O)c2cc(F)cnc2OC2CCSCC2)CC1)c1cc(F)ccc1O [Example 25, Syn-5-Fluoro-N-[4-(5-fluoro-2-hydroxy-benzoylamino)-cyclohexyl]-2-(tetrahydro-thiopyran-4-yloxy)-nicotinamide] | 0.8 nM
20 | O=C(N[C@H]1CC[C@@H](NC(=O)c2cc(F)cnc2OC2CCSCC2)CC1)c1ccc(Cl)cc1O [Example 15, Syn-N-[4-(4-Chloro-2-hydroxy-benzoylamino)-cyclohexyl]-5-fluoro-2-(tetrahydro-thiopyran-4-yloxy)-nicotinamide] | 0.4 nM
21 | O=C(N[C@H]1CC[C@@H](NC(=O)c2cc(F)cnc2OC2CCSCC2)CC1)c1ccccc1O [Example 29, Syn-5-Fluoro-N-[4-(2-hydroxy-benzoylamino)-cyclohexyl]-2-(tetrahydro-thiopyran-4-yloxy)-nicotinamide] | 0.4 nM
22 | O=C(N[C@H]1CC[C@@H](NC(=O)c2ccnc3c(O)cccc23)CC1)c1cc(F)cnc1OC1CCSCC1 [Example 32, Syn-8-Hydroxy-quinoline-4-carboxylic acid (4-{[5-fluoro-2-(tetrahydro-thiopyran-4-yloxy)-pyridine-3-carbonyl]-amino}-cyclohexyl)-amide] | 10 nM
23 | Cc1cccc(C(=O)N[C@H]2CC[C@@H](NC(=O)c3cc(F)cnc3OC3CCSCC3)CC2)c1O [Example 28, Syn-5-Fluoro-N-[4-(2-hydroxy-3-methyl-benzoylamino)-cyclohexyl]-2-(tetrahydro-thiopyran-4-yloxy)-nicotinamide] | 12 nM
24 | Cc1cc(C(=O)N[C@H]2CC[C@@H](NC(=O)c3cc(F)cnc3OC3CCSCC3)CC2)c2cc(O)ccc2n1 [Example 31, Syn-6-Hydroxy-2-methyl-quinoline-4-carboxylic acid (4-{[5-fluoro-2-(tetrahydro-thiopyran-4-yloxy)-pyridine-3-carbonyl]-amino}-cyclohexyl)-amide] | 1 nM
25 | O=C(N[C@H]1CC[C@@H](NC(=O)c2cc(F)cnc2OC2CCSCC2)CC1)c1cc(Cl)ccc1O [Example 27, Syn-N-[4-(5-Chloro-2-hydroxy-benzoylamino)-cyclohexyl]-5-fluoro-2-(tetrahydro-thiopyran-4-yloxy)-nicotinamide] | 0.7 nM
26 | Cc1cc(C(=O)N[C@H]2CC[C@@H](NC(=O)c3cc(F)cnc3OC3CCSCC3)CC2)nn1C [Example 42] | 0.02 nM
27 | O=C(N[C@H]1CC[C@@H](NC(=O)c2cccc3cn[nH]c23)CC1)c1cc(F)cnc1OC1CCSCC1 [Example 33, Syn-1H-Indazole-7-carboxylic acid (4-{[5-fluoro-2-(tetrahydro-thiopyran-4-yloxy)-pyridine-3-carbonyl]-amino}-cyclohexyl)-amide] | 0.07 nM
28 | O=C(N[C@H]1CC[C@@H](NC(=O)c2nn(CCO)c3ccccc23)CC1)c1cc(F)cnc1OC1CCSCC1 [Example 53, Syn-1-(2-Hydroxy-ethyl)-1H-indazole-3-carboxylic acid (4-{[5-fluoro-2-(tetrahydro-thiopyran-4-yloxy)-pyridine-3-carbonyl]-amino}-cyclohexyl)-amide] | 0.01 nM

test system: PDE4; assay: PDE4 inhibition: hydrolysis of tritium labelled cAMP to AMP, SPA bead scintillation counting; type: biochemical; conditions: tritium labelled cAMP incubated with PDE4, yttrium silicate SPA beads
Description: The PDE4 inhibitory activity of the nicotinamide derivatives of the formula (I) is determined by the ability of compounds to inhibit the hydrolysis of cAMP to AMP by PDE4 (Thompson J W, Teraski W L, Epstein P M, Strada S J., “Assay of nucleotidephosphodiesterase and resolution of multiple molecular forms of the isoenzyme”, Advances in cyclic nucleotides research, edited by Brooker G, Greengard P, Robinson G A. Raven Press, New York 1979, 10, p. 69-92). Tritium labelled cAMP is incubated with PDE4. Following incubation, the radiolabelled AMP produced is able to bind yttrium silicate SPA beads. These SPA beads subsequently produce light that can be quantified by scintillation counting. The addition of a PDE4 inhibitor prevents the formation of AMP from cAMP and counts are diminished. The IC50 of a PDE4 inhibitor can be defined as the concentration of a compound that leads to a 50% reduction in counts compared to the PDE4 only (no inhibitor) control wells.
as §1

Row | IC50 | Structure (SMILES)
29 | 1.8 nM | O=C(N[C@H]1CC[C@@H](NS(=O)(=O)c2cccc3cccnc23)CC1)c1cccnc1OC1CCSCC1 [Example 65]
30 | 0.3 nM | Cc1cc(C(=O)N[C@H]2CC[C@@H](NC(=O)c3cc(F)cnc3OC3CCSCC3)CC2)nn1C [Example 42]
